According to US10689343B2, “Inhibitors of tryptophan 2,3-dioxygenase” (NETHERLANDS TRANSLATIONAL RESEARCH CENTER B.V., priority 2016, dated 2020):
Values joined by “and” are separate entries in the source; they are usually repeats but may differ in a detail not shown here. Identical values can stand only once. Like-named read-outs stand apart in the source and are kept apart here.

Key:
Recombinant TDO = molecular target: T1, Recombinant TDO (Homo sapiens, UniProt P48775); assay: Biochemical assay for TDO (NFK GreenScreen); conditions: 50 nM TDO, 200 μM L-tryptophan
T1 construct: Recombinant TDO (Seegers, N., et al.) and all other assay components were diluted in TDO reaction buffer
T1 sequence (P48775 whole entry): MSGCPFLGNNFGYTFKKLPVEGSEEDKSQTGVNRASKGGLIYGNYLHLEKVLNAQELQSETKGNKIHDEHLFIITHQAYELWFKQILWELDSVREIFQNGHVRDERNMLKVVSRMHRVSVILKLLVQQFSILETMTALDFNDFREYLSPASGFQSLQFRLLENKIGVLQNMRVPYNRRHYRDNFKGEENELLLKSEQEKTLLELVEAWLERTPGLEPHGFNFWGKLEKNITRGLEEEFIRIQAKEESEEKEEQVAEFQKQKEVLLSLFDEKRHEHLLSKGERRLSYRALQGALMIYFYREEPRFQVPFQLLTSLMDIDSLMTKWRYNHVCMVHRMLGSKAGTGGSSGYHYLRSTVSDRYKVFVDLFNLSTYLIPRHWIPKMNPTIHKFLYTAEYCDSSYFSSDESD
In short: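 Recombinant human TDO (50 nM) preincubated with compound 60 min at room temperature in 100 mM NaH2PO4 pH 7.0, 0.02% Tween-20, with ascorbic acid. Reaction then run 15 min with 200 μM L-tryptophan (final), 0.3% DMSO. NFK product detected by NFK Green fluorescence after 3 h at 37° C; IC50 derived.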

CYP2D6 = CYP2D6 (Homo sapiens, UniProt P10635); assay: P450-Glo CYP2D6 Luc-IP assay
CYP2D6, sequence (P10635 whole entry): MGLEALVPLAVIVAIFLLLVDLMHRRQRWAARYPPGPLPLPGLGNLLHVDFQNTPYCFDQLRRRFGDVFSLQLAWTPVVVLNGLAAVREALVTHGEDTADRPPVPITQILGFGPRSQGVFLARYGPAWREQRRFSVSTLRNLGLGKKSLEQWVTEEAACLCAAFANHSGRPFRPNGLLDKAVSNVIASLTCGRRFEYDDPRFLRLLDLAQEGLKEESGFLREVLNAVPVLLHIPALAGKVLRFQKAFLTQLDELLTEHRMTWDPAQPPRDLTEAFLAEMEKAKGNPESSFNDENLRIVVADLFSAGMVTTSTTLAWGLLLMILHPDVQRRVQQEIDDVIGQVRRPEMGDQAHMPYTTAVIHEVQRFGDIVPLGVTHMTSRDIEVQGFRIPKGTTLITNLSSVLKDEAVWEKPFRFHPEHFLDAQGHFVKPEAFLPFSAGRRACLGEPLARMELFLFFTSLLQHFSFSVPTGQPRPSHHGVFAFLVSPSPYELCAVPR

CYP3A4 = CYP3A4 (Homo sapiens, UniProt P08684); assay: P450-Glo CYP3A4 luciferin isopropylacetal (Luc-IP) assay
CYP3A4, sequence (P08684 whole entry): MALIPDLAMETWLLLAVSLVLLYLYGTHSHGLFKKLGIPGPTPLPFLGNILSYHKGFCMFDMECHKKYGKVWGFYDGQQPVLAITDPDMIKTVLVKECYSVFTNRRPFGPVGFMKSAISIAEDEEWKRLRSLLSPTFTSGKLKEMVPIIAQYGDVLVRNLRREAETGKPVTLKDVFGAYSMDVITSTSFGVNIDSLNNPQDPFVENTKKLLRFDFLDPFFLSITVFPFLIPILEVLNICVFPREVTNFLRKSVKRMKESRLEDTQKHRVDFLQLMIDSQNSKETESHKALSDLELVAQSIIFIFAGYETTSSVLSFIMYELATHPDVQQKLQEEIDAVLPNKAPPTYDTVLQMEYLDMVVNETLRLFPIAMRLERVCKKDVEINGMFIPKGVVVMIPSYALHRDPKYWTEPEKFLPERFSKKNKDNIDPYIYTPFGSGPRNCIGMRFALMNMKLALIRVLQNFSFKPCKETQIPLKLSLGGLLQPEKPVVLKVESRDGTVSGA
Description: To determine the inhibitory potency of compounds on CYP3A4 enzyme, the P450-Glo CYP3A4 luciferin isopropylacetal (Luc-IP) assay was used (Promega, Madison, Wis., USA, Cat. No. V9920). The assay makes use of a luminogenic isopropylacetal (IPA) substrate that is a derivative from beetle luciferin, a substrate of luciferase enzymes. The IPA substrate is converted by CYP3A4 to luciferin, which in turn reacts with luciferase to produce an amount of light that is directly proportional to the activity of CYP3A4. Compounds were serially diluted in DMSO and finally in 400 mM K2HPO4, pH 7.4. 5 μl of compound solution and 5 μl of CYP3A4/substrate solution were combined in the well of a white 384-well Optiplate (Perkin Elmer). The DMSO concentration in the assay was 0.1%. After incubation for 10 minutes at room temperature in the dark, 10 μl of NADPH regeneration system was added and incubation was continued for 10 min. Then, 20 μl of Luciferin Detection Reagent was added to stop the reaction, and incubation was continued for another 20 min. Luminescence was measured on an Envision multimode reader and IC50 values were calculated using XLfit™. […] Instead of in a 96-well plate, the assay was performed in 384-well white Perkin Elmer Optiplate (cat. no. 6007290).

[1] = molecular target: T2, TDO in SW48 colorectal carcinoma cells (Homo sapiens, UniProt P48775); assay: Cell-based assay for TDO in SW48 colorectal carcinoma cells (NFK GreenScreen); conditions: 18 hours with L-tryptophan
T2 construct: Endogenous expression of TDO has been determined in a variety of cancer cell lines; host or cells: SW48 colorectal carcinoma cells
T2 sequence (P48775 whole entry): as the sequence (P48775 whole entry) above
Protocol: The biological activity of TDO inhibitors can be measured by applying above detection methods to cells that are treated with test compound. Endogenous expression of TDO has been determined in a variety of cancer cell lines (Pilotte et al.; Seegers, et al.), or TDO can be expressed in cells that lack endogenous TDO by transfection of an expression vector containing TDO cDNA. […] A preferred assay is the cell-based NFK GreenScreen™ assay (Seegers et al, supra), which measures the cellular inhibitory activity of compounds on TDO. […] No. V9920). Cell-Based Assay for TDO The NFK GreenScreen™ assay technology was also used to determine the inhibitory activity of compounds on TDO in SW48 colorectal carcinoma cells (Seegers, N., et al., J. Biol. Screen. 19: 1266; 2014). […] Compounds were dissolved in DMSO and diluted in RPMI 1640. Final DMSO concentration in the assay was 0.4% (v/v). Eight thousand cells per well in 40 μl were seeded in a black 384-well tissue plate (cat. No. 781086; […] To determine NFK levels, 12 μl NFK Green™ (NTRC, Oss, The Netherlands) was added to each well, and the plate was sealed and incubated for 4 hours at 37° C. Fluorescence was measured on an EnVision multimode reader (Perkin Elmer, Waltham, Mass., USA).

Row | SMILES | IC50 (Recombinant TDO) | IC50 (CYP2D6) | IC50 (CYP3A4) | IC50 ([1]; read-out: IC50 on TDO in cells) | IC50 ([1]; IC50 on TDO in cells)
1 | NS(=O)(=O)N1CCCC(NC(=O)c2ccc(-c3c[nH]c4cc(F)ccc34)cc2)C1 (stereo not shown) [Example 132, 4-(6-Fluoro-1H-indol-3-yl)-N-(1-sulfamoyl-3-piperidyl)benzamide] | 1000 to 5000 nM | > 10 µM | > 10 µM | ≤ 500 nM and 200 to 500 nM | 
2 | O=C(NC1[C@H]2COC[C@@H]12)c1ccc(-c2c[nH]c3cc(F)ccc23)cc1 (stereo partly drawn) [Example 64, 4-(6-Fluoro-1H-indol-3-yl)-N-[(1R,5S)-3-oxabicyclo[3.1.0]hexan-6-yl]benzamide] | < 1000 nM | > 10 µM | > 10 µM | ≤ 500 nM and 200 to 500 nM | 
3 | O=C(NCCO)c1ccc(-c2c[nH]c3cc(F)ccc23)cc1 [Example 10, 4-(6-Fluoro-1H-indol-3-yl)-N-(2-hydroxyethyl)benzamide] | < 1000 nM | 5 to 10 µM | > 10 µM | ≤ 500 nM and 200 to 500 nM | 
4 | O=C(N[C@H]1CCCNC1)c1ccc(-c2c[nH]c3cc(F)ccc23)cc1Cl [Example 55, 2-Chloro-4-(6-fluoro-1H-indol-3-yl)-N-[(3S)-3-piperidyl]benzamide] | < 1000 nM | > 10 µM | 5 to 10 µM | ≤ 200 nM | 
5 | N[C@@H]1CCC[C@H](C(=O)Nc2ccc(-c3c[nH]c4cc(F)ccc34)cc2)C1 [Example 105, (1S,3R)-3-amino-N-[4-(6-fluoro-1H-indol-3-yl)phenyl]cyclohexanecarboxamide] | < 1000 nM | > 10 µM | > 10 µM | ≤ 500 nM and 200 to 500 nM | 
6 | CC(O)C(C)NC(=O)c1ccc(-c2c[nH]c3cc(F)ccc23)cc1 (stereo not shown) [Example 21, 4-(6-Fluoro-1H-indol-3-yl)-N-(2-hydroxy-1-methyl-propyl)benzamide] | < 1000 nM | > 10 µM | > 10 µM | ≤ 200 nM | 
7 | CCN(CC)CC(C)NC(=O)c1ccc(-c2c[nH]c3cc(F)ccc23)cc1OC (stereo not shown) [Example 79, N-[2-(diethylamino)-1-methyl-ethyl]-4-(6-fluoro-1H-indol-3-yl)-2-methoxy-benzamide] | < 1000 nM | > 10 µM | > 10 µM | ≤ 200 nM | 
8 | COCC(=O)Nc1ccc(-c2c[nH]c3cc(F)ccc23)cc1 [Example 27, N-[4-(6-fluoro-1H-indol-3-yl)phenyl]-2-methoxy-acetamide] | < 1000 nM | > 10 µM | > 10 µM | ≤ 500 nM and 200 to 500 nM | 
9 | O=C(N[C@H]1CCCNC1)c1ccc(-c2c[nH]c3cc(F)ccc23)cc1F [Example 125, 2-Fluoro-4-(6-fluoro-1H-indol-3-yl)-N-[(3S)-3-piperidyl]benzamide] | < 1000 nM | > 10 µM | 5 to 10 µM | ≤ 200 nM | 
10 | O=C(N[C@@H](CO)c1ccccc1)c1ccc(-c2c[nH]c3cc(F)ccc23)cc1 [Example 16, 4-(6-fluoro-1H-indol-3-yl)-N-[(1R)-2-hydroxy-1-phenyl-ethyl]benzamide] | 1000 to 5000 nM | 5 to 10 µM | 5 to 10 µM | ≤ 500 nM and 200 to 500 nM | 
11 | NC(=O)CNC(=O)c1ccc(-c2c[nH]c3cc(F)ccc23)cc1 [Example 112, N-(2-amino-2-oxo-ethyl)-4-(6-fluoro-1H-indol-3-yl)benzamide] | < 1000 nM | > 10 µM | > 10 µM | ≤ 500 nM and 200 to 500 nM | 
12 | C[C@@H](CO)NC(=O)c1ccc(-c2c[nH]c3cc(F)ccc23)cc1F [Example 123, 2-Fluoro-4-(6-fluoro-1H-indol-3-yl)-N-[(1S)-2-hydroxy-1-methyl-ethyl]benzamide] | < 1000 nM | > 10 µM | 5 to 10 µM | ≤ 200 nM | 
13 | O=C(NCCN1CCCCC1)c1ccc(-c2c[nH]c3cc(F)ccc23)cc1 [Example 46, 4-(6-Fluoro-1H-indol-3-yl)-N-[2-(1-piperidyl)ethyl]benzamide] | < 1000 nM | > 10 µM | 5 to 10 µM | ≤ 500 nM and 200 to 500 nM | 
14 | O=C(N[C@H]1CCCNC1)c1ccc(-c2c[nH]c3cc(F)ccc23)cc1 [Example 19, 4-(6-Fluoro-1H-indol-3-yl)-N-[(3S)-3-piperidyl]benzamide] | < 1000 nM | > 10 µM | > 10 µM | ≤ 200 nM | 
15 | COc1cc(-c2c[nH]c3cc(F)ccc23)ccc1C(=O)N[C@H]1CCCNC1 [Example 75, 4-(6-Fluoro-1H-indol-3-yl)-2-methoxy-N-[(3S)-3-piperidyl]benzamide] | < 1000 nM | > 10 µM | 5 to 10 µM | ≤ 200 nM | 
16 | CC(C)NC(=O)c1ccc(-c2c[nH]c3cc(F)ccc23)cc1 [Example 2, 4-(6-Fluoro-1H-indol-3-yl)-N-isopropyl-benzamide] | < 1000 nM | > 10 µM | > 10 µM | ≤ 200 nM | 
17 | O=C(NC[C@@H]1CCCNC1)c1ccc(-c2c[nH]c3cc(F)ccc23)cc1 [Example 42, 4-(6-Fluoro-1H-indol-3-yl)-N-[[(3R)-3-piperidyl]methyl]benzamide] | < 1000 nM | > 10 µM | 5 to 10 µM | ≤ 500 nM and 200 to 500 nM | 
18 | C[C@H](CO)NC(=O)c1ccc(-c2c[nH]c3cc(F)ccc23)cc1 [Example 14, 4-(6-fluoro-1H-indol-3-yl)-N-[(1R)-2-hydroxy-1-methyl-ethyl]benzamide] | < 1000 nM | 5 to 10 µM | > 10 µM |  | ≤ 500 nM and 200 to 500 nM
19 | CCN(CC)CC(C)NC(=O)c1ccc(-c2c[nH]c3cc(F)ccc23)cc1 (stereo not shown) [Example 23, N-[2-(diethylamino)-1-methyl-ethyl]-4-(6-fluoro-1H-indol-3-yl)benzamide] | < 1000 nM | > 10 µM | 5 to 10 µM | ≤ 200 nM | 
20 | CC(CN(C)C)NC(=O)c1ccc(-c2c[nH]c3cc(F)ccc23)cc1Cl (stereo not shown) [Example 82, 2-Chloro-N-[2-(dimethylamino)-1-methyl-ethyl]-4-(6-fluoro-1H-indol-3-yl)benzamide] | < 1000 nM | > 10 µM | 5 to 10 µM | ≤ 200 nM | 
21 | CC(N)CNC(=O)c1ccc(-c2c[nH]c3cc(F)ccc23)cc1Cl (stereo not shown) [Example 71, N-(2-aminopropyl)-2-chloro-4-(6-fluoro-1H-indol-3-yl)benzamide] | < 1000 nM | > 10 µM | 5 to 10 µM | ≤ 200 nM | 
22 | CN(C)CCCNC(=O)c1ccc(-c2c[nH]c3cc(F)ccc23)cc1F [Example 124, N-[3-(dimethylamino)propyl]-2-fluoro-4-(6-fluoro-1H-indol-3-yl)benzamide] | < 1000 nM | > 10 µM | 5 to 10 µM | ≤ 200 nM | 
23 | CN1CCC(O)(CNC(=O)c2ccc(-c3c[nH]c4cc(F)ccc34)cc2)CC1 [Example 63, 4-(6-Fluoro-1H-indol-3-yl)-N-[(4-hydroxy-1-methyl-4-piperidyl)methyl]benzamide] | < 1000 nM | > 10 µM | > 10 µM | ≤ 500 nM and 200 to 500 nM | 
24 | C[C@H](CO)NC(=O)c1ccc(-c2c[nH]c3cc(F)ccc23)cc1Cl [Example 51, 2-Chloro-4-(6-fluoro-1H-indol-3-yl)-N-[(1R)-2-hydroxy-1-methyl-ethyl]benzamide] | < 1000 nM | > 10 µM | > 10 µM | ≤ 500 nM and 200 to 500 nM | 
25 | C[C@H](CO)NC(=O)c1ccc(-c2c[nH]c3cc(F)ccc23)cc1F [Example 129, 2-Fluoro-4-(6-fluoro-1H-indol-3-yl)-N-[(1R)-2-hydroxy-1-methyl-ethyl]benzamide] | < 1000 nM | > 10 µM | > 10 µM | ≤ 500 nM and 200 to 500 nM | 
26 | O=C(NOC[C@@H](O)CO)c1ccc(-c2c[nH]c3cc(F)ccc23)cc1 [Example 66, N-[(2S)-2,3-dihydroxypropoxy]-4-(6-fluoro-1H-indol-3-yl)benzamide] | < 1000 nM | > 10 µM | 5 to 10 µM | ≤ 500 nM and 200 to 500 nM | 
27 | CN1CCCC(NC(=O)c2ccc(-c3c[nH]c4cc(F)ccc34)cc2Cl)C1 (stereo not shown) [Example 68, 2-Chloro-4-(6-fluoro-1H-indol-3-yl)-N-(1-methyl-3-piperidyl)benzamide] | < 1000 nM | > 10 µM | 5 to 10 µM | ≤ 200 nM | 
28 | COc1cc(-c2c[nH]c3cc(F)ccc23)ccc1C(=O)N[C@@H](C)CO [Example 136, 4-(6-Fluoro-1H-indol-3-yl)-N-[(1S)-2-hydroxy-1-methyl-ethyl]-2-methoxy-benzamide] | < 1000 nM | > 10 µM | > 10 µM | ≤ 500 nM and 200 to 500 nM | 
